Measured values taken from US9289467B2, “Compositions and methods for treating bone conditions” (Case Western Reserve University, priority 2011, dated 2016).
Entries after “also recorded” stand apart in the source; their conditions may differ.

B1: C5a: purified C5a (Cell Sciences), complement activation product, 50 ng/mL (protein, UniProt P06684 679-755, looked up)
C5a anaphylatoxin: NLHLLRQKIEEQAAKYKHSVPKKCCYDGARVNFYETCEERVARVTIGPLCIRAFNECCTIANKIRKESPHKPVQLGR
modifications: C5a anaphylatoxin
B2: IL-6: exogenous IL-6 (R&D Systems), 20 ng/mL supplemented into BM cell cultures (protein, UniProt P08505 25-211, looked up)
Interleukin-6: FPTSQVRRGDFTEDTTPNRPVYTTSQVGGLITHVLWEIVEMRKELCNGNSDCMNNDDALAENNLKLPEIQRNDGCYQTGYNQEICLLKISSGLLEYHSYLEYMKNNLKDNKKDKARVLQRDTETLIHIFNQEVKDLHKIVLPTPISNALLTDKLESQKEWLRTKTIQFILKSLEEFLKVTLRSTRQT

Legend:
Assay type in all cases: cell-based
[1] = test system: WT BM cells; assay: OC differentiation of WT mouse BM cells stimulated with 1.25(OH)2 vitamin D3, TRAP staining; conditions: for TRAP-positive multinuclear cells / TRAP-positive mononuclear cells / numbers of resultant OC with exogenous C3a/C5a, result in words: WT BM cells; for TRAP-positive multinuclear cells / TRAP-positive mononuclear cells: 1×10^−8M 1.25(OH)2 vitamin D3, 50 μM of each antagonist, day 12; for TRAP-positive multinuclear cells: placebo 42±9; for TRAP-positive mononuclear cells: placebo 217±25; for OC generation / differentiation, result in words: WT mouse BM cells, antagonist during 1.25(OH)2 vitamin D3 stimulation, vs placebo; for numbers of resultant OC with exogenous C3a/C5a, result in words: 50 ng/mL C3a or C5a or both added daily
Description: (§1) Human BM cells from healthy donors were obtained from the Hematopoietic Stem Cell Core Facility of Case Western Reserve University. Murine BM cells were isolated from 8- to 12-week-old female mouse femurs and tibias, washed, and collected in 15-mL tubes in α-modified Eagle medium (MEM) containing 10% fetal bovine serum (FBS) that was heat-inactivated to eliminate complement activity. For OC differentiation, 2×10^6 BM cells were cultured in complete α-MEM medium in wells of a 24-well plate together with 1×10^−8M 1.25(OH)2 vitamin D3 (Cayman Chemical) as described before. Cultures were fed every 3 days with fresh media. For IL-6 or C5aR antagonist (C5aRA)/C3aR antagonist (C3aRA) supplementation experiments, 20 ng/mL IL-6 (R&D Systems) or 50 μM of each antagonist or both (C5aRA: JPE-1375; custom synthesized by Anaspec; C3aRA:SB290157; purchased from BMD Chemicals) were included in the medium. For C3a and/or C5a supplementation experiments, 50 ng/mL purified C3a (BD Biosciences) or C5a (Cell Sciences) or both were added daily into WT and C3^−/− BM-cell cultures. To neutralize IL-6 in samples treated with C3a/C5a, 10 ng/mL rat anti-IL-6 mAb (Clone 6B4 IGH 54; eBioscience) were added every 2 days. At day 12, differentiated OCs were identified by conventional tartrate-resistant acid phosphatase (TRAP) staining using a kit (Sigma-Aldrich) and following the protocol provided by the manufacturer. Total numbers of TRAP-positive cells in each well were counted under a microscope, and cells containing 3 or more nuclei were categorized as multinucleated.

[2] = test system: human BM cells; assay: OC differentiation of human BM cells stimulated with 1.25(OH)2 vitamin D3, TRAP staining; conditions: 1.25(OH)2 vitamin D3, with antagonists vs placebo
Description: as §1
To determine whether the above-observed results would apply to humans, we subjected normal human BM cells to OC differentiation conditions with and without the C3aR/C5aR antagonists, then analyzed the conditioned media for the presence of factor B, factor D, and C5, and quantified the resultant TRAP^+ cells.

[3] = test system: C3^−/− BM cells; assay: OC differentiation of C3^−/− mouse BM cells stimulated with 1.25(OH)2 vitamin D3, TRAP staining; conditions: for numbers of resultant OC with exogenous C3a/C5a, result in words: 50 ng/mL C3a or C5a or both added daily
Description: as §1

Molecule	TRAP-positive multinuclear cells [1]	TRAP-positive mononuclear cells [1]	OC generation / differentiation, result in words [1]	OC differentiation (TRAP^+ cells), result in words [2]	numbers of resultant OC with exogenous C3a/C5a, result in words [1]	numbers of resultant OC with exogenous C3a/C5a, result in words ([3]; C3^−/− BM cells)	other results
NC(N)=NCCC[C@H](NC(=O)COCC(c1ccccc1)c1ccccc1)C(=O)O [C3aRA, SB290157]	29±7 cells	156±23 cells	significantly inhibited OC generation	significant decrease in both mononuclear and multi-nuclear TRAP^+ cells			
C3a: purified C3a (BD Biosciences), complement activation product, 50 ng/mL					increased the numbers of resultant OC	increased the numbers of resultant OC	
JPE-1375 [C5aRA]	34±8 cells	176±29 cells	did not reach a statistical significance	decrease in both cell types, but only the mono-nuclear cells were at the level of statistical significance			OC generation / differentiation, result in words ([1]; listed as JPE-1375): inhibits mouse and human OC differentiation in vitro; OC differentiation (TRAP^+ cells), result in words ([2]; listed as JPE-1375): inhibits mouse and human OC differentiation in vitro
B1					did not appear to have a significant effect	did not appear to have a significant effect	
B2							OC differentiation with IL-6 supplementation, result in words ([3]; C3^−/− BM cell cultures supplemented with IL-6): rescued the C3^−/− phenotype; also recorded: restored their OC differentiation capabilities; TRAP-positive cells (multinucleated) ([3]; C3^−/− BM cells, 20 ng/mL IL-6 daily, 12 days, without IL-6 31±4): 52±9; TRAP-positive cells (mononuclear) ([3]; C3^−/− BM cells, 20 ng/mL IL-6 daily, 12 days, without IL-6 108±17): 249±39; Trap^+ Multi-Nucl. Cells/Well ([3]; Table 2, C3^−/− BM cells + IL-6, C3^−/− without IL-6 31 ± 4): 52 ± 9 Cells/Well; Trap^+ Mono-Nucl. Cells/Well ([3]; Table 2, C3^−/− BM cells + IL-6, C3^−/− without IL-6 108 ± 17): 249 ± 39 Cells/Well
